# Patent US10821096B1, “Compounds for inhibiting NS3 and compositions containing the inhibited protein” (priority 2019, dated 2020)
# Key:
# [1] = biological target: T1, NS3 (Hepatitis C virus genotype 4a, UniProt O39929, A1087S/A1113S/A1121T/A1128S/I1140V/I1160T/I1179L/R1118K/R1176A/S1127A); assay: Enzyme inhibition assay (SensoLyte-520 HCV protease assay kit, FRET peptide); format: biochemical, HCV genotype 4a; details: MOC-23 at 6.3 μM, NS3 4.0 μM, 5-FAM/QXL520 FRET peptide
# T1 construct: NS3 protease domain 1-181 aa+N-terminal T7 tag and C-terminal His tag; T7 tag (N); made in house; host or cells: E. coli Rosette (DE3) pLysS, vector pET-3a
# T1 sequence (O39929 1027-1207 A1087S/A1113S/R1118K/A1121T/S1127A/A1128S/I1140V/I1160T/R1176A/I1179L): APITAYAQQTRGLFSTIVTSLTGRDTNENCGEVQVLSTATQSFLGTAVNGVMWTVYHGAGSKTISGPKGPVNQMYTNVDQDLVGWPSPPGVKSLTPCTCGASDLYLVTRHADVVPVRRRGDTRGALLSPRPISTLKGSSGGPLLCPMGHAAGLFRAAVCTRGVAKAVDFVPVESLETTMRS
# Experimental: The assay was performed using SensoLyte-520® HCV protease assay kit Fluorometric® (Anaspec, Fremont, Calif., USA) according to a modified procedure to suit the purpose of determination of allosteric inhibition. NS3 (4.0 μM) was mixed with MOC-23 (6.3 μM) for 15 minutes. Afterwards, 5-FAM/QXL™520 fluorescence resonance energy transfer (FRET) peptide was added as instructed by the assay kit manual. The sequence of this FRET peptide (5-FAM-SLGRKIQIQ) is derived from the cleavage site of NS4A/NS4B. In the FRET peptide, the fluorescence of 5-FAM is quenched by QXL™520. Upon cleavage into two separate fragments by HCV NS3/4A protease, the fluorescence of 5-FAM is recovered, and can be monitored at 490 nm/520 nm (excitation/emission). Controls included buffer, compound, compound+NS3, NS3+NS4A and FRET peptide separately. All test wells and controls were repeated in triplicates at the same 96-well plate.
# [2] = biological target: T1, NS3; assay: Binding and competition assay (fluorescence anisotropy, displacement of FITC-NS4A from NS3); parameters: species or system HCV genotype 4a; details: for binding affinity (in words): fluorescence anisotropy competition with FITC-NS4A
# Experimental: Binding buffer (20 mM HEPES, 10 mM DTT, 200 mM NaCl, pH 7.6), a mixture of NS3 (1.8 μM) and FITC-NS4A ([…]) at the calculated affinity constant concentration were placed in a 96-well plate as binding test solution. A serial dilution of MOC compounds (dissolved in 1.5% DMSO in binding buffer) (1/2 dilution starting from 150 μM to 0.292 μM) was mixed gently with the binding text solution for 60 minutes in the dark. The dissociation constant was calculated according to the recommended equation embedded in GraphPad Prism v8.
# The binding affinity test was performed using fluorescence anisotropy technique. In this test, maximum fluorescence was first determined at optimal ratio of NS3 (1.8 μM) and FITC-NS4A (0.1 μM). Compounds that compete with NS4A should be able to decrease the fluorescence of this mixture because they prevent the binding to occur and it should be concentration-dependent. […] The reproducibility was checked using another batch of the express NS3 protein following the same procedure and the value was calculated=7.815±1.014 μM. […] Therefore, compound MOC-23 was tested for its ability to inhibit the NS3 enzyme.
Structure (SMILES),inhibition of NS3 proteolytic activity [1],"Kd ([2]; dissociation constant (reproducibility check), another batch of the expressed NS3 protein, same procedure) [µM]","Kd ([2]; dissociation constant Kd (competition with FITC-NS4A), fluorescence anisotropy, NS3 1.8 μM, FITC-NS4A 0.1 μM, first batch of NS3) [µM]",binding affinity (in words) [2]
"CCCCCNC(=O)c1ncc(C(=O)NCCCCNC(=N)N)[nH]1 [MOC-23, N^5-(4-guanidinobutyl)-N^2-(n-pentyl)-1H-imidazole-2,5-dicarboxamide]",abolished any proteolytic activity,7.81 ± 1.01,6.3 ± 0.3,highest affinity
"CCCCCCNC(=O)c1ncc(C(=O)NCCCCNC(=N)N)[nH]1 [MOC-24, N^5-(4-guanidinobutyl)-N^2-(n-hexyl)-1H-imidazole-2,5-dicarboxamide]",,,,binding affinity at similar level
